Test results published in ChEMBL document CHEMBL3991601, “The target landscape of clinical kinase drugs” (Science, 2017).
pKd: −log10 of the molar value. Activity calls are given as the source filed them. Cut-off read from the data, not from the text of the source, for most assays here: actives have a measured Kd and inactives only a lower limit.

Legend:
[1] = molecular target: T1, Probable ATP-dependent RNA helicase DDX6 (Homo sapiens, UniProt P26196)
T1 sequence (P26196 whole entry): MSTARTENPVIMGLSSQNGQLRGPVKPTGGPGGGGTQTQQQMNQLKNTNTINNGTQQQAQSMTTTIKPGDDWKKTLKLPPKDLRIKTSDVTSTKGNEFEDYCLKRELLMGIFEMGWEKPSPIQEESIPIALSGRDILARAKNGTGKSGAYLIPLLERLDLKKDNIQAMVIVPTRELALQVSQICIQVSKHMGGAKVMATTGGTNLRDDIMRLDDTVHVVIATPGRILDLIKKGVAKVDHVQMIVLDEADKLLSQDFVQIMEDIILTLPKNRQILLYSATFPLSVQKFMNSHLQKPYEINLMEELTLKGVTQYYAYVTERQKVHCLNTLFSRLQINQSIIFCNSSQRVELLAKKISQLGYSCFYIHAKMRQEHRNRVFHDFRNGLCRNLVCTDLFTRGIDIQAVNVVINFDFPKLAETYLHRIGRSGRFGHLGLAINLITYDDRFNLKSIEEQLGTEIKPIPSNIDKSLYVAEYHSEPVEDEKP

[2] = molecular target: T2, Ephrin type-B receptor 4 (Homo sapiens, UniProt P54760)
T2 sequence (P54760 whole entry): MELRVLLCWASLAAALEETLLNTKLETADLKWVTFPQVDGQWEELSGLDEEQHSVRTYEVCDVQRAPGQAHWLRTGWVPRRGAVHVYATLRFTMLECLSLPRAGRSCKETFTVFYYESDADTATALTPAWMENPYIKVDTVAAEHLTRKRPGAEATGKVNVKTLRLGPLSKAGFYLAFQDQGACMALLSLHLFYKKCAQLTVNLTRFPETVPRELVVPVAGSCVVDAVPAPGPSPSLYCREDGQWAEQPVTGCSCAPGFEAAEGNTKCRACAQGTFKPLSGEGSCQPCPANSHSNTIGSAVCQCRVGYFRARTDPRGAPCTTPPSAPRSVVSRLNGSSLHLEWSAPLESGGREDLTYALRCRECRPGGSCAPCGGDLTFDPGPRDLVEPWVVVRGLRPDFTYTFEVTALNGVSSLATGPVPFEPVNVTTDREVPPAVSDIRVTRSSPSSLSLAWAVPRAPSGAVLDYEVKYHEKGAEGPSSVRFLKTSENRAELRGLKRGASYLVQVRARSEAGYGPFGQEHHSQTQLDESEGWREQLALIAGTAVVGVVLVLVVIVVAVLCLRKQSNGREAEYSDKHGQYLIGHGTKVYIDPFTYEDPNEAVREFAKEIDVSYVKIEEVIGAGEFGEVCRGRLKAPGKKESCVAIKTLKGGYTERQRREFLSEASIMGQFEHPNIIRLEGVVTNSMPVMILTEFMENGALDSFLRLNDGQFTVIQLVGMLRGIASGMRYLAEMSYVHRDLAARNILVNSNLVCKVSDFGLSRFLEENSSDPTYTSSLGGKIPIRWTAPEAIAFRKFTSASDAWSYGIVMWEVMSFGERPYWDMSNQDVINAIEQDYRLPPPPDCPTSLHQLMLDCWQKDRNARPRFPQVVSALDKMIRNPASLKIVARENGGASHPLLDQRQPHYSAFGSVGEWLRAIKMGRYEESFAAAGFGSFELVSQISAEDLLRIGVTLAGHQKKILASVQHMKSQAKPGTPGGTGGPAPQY

[3] = molecular target: T3, Phosphatidylinositol 5-phosphate 4-kinase type-2 gamma (Homo sapiens, UniProt Q8TBX8)
T3 sequence (Q8TBX8 whole entry): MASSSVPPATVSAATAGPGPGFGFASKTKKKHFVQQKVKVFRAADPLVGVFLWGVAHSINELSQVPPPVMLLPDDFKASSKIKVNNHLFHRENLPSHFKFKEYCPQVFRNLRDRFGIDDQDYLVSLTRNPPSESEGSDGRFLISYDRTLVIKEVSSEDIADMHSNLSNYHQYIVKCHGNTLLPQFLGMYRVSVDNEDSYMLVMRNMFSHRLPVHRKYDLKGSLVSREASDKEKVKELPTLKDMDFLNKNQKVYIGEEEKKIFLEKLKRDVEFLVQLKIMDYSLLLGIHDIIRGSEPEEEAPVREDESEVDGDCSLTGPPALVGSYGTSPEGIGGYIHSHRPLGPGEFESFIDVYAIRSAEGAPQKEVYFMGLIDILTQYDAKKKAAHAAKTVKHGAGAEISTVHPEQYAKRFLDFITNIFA

[4] = molecular target: T4, Serine/threonine-protein kinase ULK1 (Homo sapiens, UniProt O75385)
T4 sequence (O75385 whole entry): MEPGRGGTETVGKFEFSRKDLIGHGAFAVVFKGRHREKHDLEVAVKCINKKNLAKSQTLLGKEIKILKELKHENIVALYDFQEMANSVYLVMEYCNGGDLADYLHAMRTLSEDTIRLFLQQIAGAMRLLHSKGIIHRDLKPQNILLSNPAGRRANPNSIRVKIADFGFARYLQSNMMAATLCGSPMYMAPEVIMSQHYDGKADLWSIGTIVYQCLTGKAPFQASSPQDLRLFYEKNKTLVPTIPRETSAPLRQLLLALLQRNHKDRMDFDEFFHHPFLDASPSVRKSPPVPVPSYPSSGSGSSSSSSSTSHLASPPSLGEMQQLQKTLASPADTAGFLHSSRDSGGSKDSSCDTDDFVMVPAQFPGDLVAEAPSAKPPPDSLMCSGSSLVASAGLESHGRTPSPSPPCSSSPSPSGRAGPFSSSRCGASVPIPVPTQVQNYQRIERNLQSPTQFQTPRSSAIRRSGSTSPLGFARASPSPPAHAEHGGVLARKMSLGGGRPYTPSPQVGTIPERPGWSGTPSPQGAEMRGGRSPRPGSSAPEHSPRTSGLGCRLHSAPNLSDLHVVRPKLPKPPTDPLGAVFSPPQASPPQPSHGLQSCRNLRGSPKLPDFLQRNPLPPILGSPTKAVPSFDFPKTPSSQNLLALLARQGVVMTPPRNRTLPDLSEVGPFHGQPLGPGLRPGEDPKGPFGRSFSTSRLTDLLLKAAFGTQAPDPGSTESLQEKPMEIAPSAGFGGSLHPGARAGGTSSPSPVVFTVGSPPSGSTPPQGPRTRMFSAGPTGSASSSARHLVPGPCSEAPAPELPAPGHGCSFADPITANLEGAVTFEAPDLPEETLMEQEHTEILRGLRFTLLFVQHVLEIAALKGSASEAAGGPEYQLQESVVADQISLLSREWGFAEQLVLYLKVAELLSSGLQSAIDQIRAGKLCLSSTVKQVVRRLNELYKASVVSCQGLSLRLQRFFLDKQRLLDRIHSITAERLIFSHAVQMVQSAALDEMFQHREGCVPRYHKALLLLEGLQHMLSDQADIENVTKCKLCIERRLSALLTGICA
Note: in the data inactive means no Kd found up to 30 µM.

Row | Kd [1] | Kd [2] | Kd [3] | Kd [4] | pKd [3] | Compound | pKd [2]
1 | > 30 µM (inactive) | > 30 µM (inactive) | > 30 µM (inactive) | > 30 µM (inactive) | – | COC(=O)N[C@@H](C)CNc1nccc(-c2cn(C(C)C)nc2-c2cc(Cl)cc(NS(C)(=O)=O)c2F)n1 [ENCORAFENIB] | –
2 | > 30 µM (inactive) | > 30 µM (inactive) | > 30 µM (inactive) | > 30 µM (inactive) | – | CO[C@H]1C[C@@H]2CC[C@@H](C)[C@@](O)(O2)C(=O)C(=O)N2CCCC[C@H]2C(=O)O[C@H]([C@H](C)C[C@@H]2CC[C@@H](OCCO)[C@H](OC)C2)CC(=O)[C@H](C)/C=C(\C)[C@@H](O)[C@@H](OC)C(=O)[C@H](C)C[C@H](C)/C=C/C=C/C=C/1C [EVEROLIMUS] | –
3 | > 30 µM (inactive) | > 30 µM (inactive) | > 30 µM (inactive) | > 30 µM (inactive) | – | COCCNCc1ccc(-c2cc3nccc(Oc4ccc(NC(=S)NC(=O)Cc5ccc(F)cc5)cc4F)c3s2)nc1 [GLESATINIB] | –
4 | > 30 µM (inactive) | > 30 µM (inactive) | – | > 30 µM (inactive) | 6.48 | O=C1NC(=O)/C(=C/c2ccc3nccc(-c4ccncc4)c3c2)S1 [GSK-1059615] | –
5 | > 30 µM (inactive) | > 30 µM (inactive) | > 30 µM (inactive) | > 30 µM (inactive) | – | CC[C@H](Nc1ncnc2[nH]cnc12)c1nc2cccc(F)c2c(=O)n1-c1ccccc1 [IDELALISIB] | –
6 | > 30 µM (inactive) | > 30 µM (inactive) | 0.32 µM (active) | > 30 µM (inactive) | – | Cn1cc(-c2ccc3nnc(C(F)(F)c4ccc5ncccc5c4)n3n2)cn1 [JNJ-38877605] | –
7 | > 30 µM (inactive) | > 30 µM (inactive) | > 30 µM (inactive) | > 30 µM (inactive) | – | COc1cc2nccc(Oc3ccc(NC(=O)NC4CC4)c(Cl)c3)c2cc1C(N)=O [LENVATINIB] | –
8 | > 30 µM (inactive) | > 30 µM (inactive) | > 30 µM (inactive) | > 30 µM (inactive) | – | Cc1c(F)cc(C(=O)NC2CC2)cc1-c1ccc(C(=O)NCC(C)(C)C)cn1 [LOSMAPIMOD] | –
9 | > 30 µM (inactive) | > 30 µM (inactive) | > 30 µM (inactive) | > 30 µM (inactive) | – | Cn1cc(-c2ccc(F)c(C(F)(F)F)c2)nc1C1CCN(c2ncnc3[nH]ncc23)CC1 [LY-2584702] | –
10 | > 30 µM (inactive) | > 30 µM (inactive) | > 30 µM (inactive) | > 30 µM (inactive) | – | O=C(O)[C@]1(Cc2cccc(Nc3nccs3)n2)CC[C@@H](Oc2cccc(Cl)c2F)CC1 [MK-5108] | –
11 | > 30 µM (inactive) | > 30 µM (inactive) | > 30 µM (inactive) | > 30 µM (inactive) | – | C1=C/COCc2cc(ccc2OCCN2CCCC2)Nc2nccc(n2)-c2cccc(c2)COC/1 [PACRITINIB] | –
12 | > 30 µM (inactive) | > 30 µM (inactive) | > 30 µM (inactive) | > 30 µM (inactive) | – | OCCn1cc(-c2cnc3nnn(Cc4ccc5ncccc5c4)c3n2)cn1 [PF-04217903] | –
13 | > 30 µM (inactive) | > 30 µM (inactive) | > 30 µM (inactive) | > 30 µM (inactive) | – | CNC(=O)c1cc(Oc2ccc(NC(=O)Nc3ccc(Cl)c(C(F)(F)F)c3)c(F)c2)ccn1 [REGORAFENIB] | –
14 | > 30 µM (inactive) | > 30 µM (inactive) | > 30 µM (inactive) | > 30 µM (inactive) | – | CN(C)C(=O)c1cc2cnc(Nc3ccc(N4CCNCC4)cn3)nc2n1C1CCCC1 [RIBOCICLIB] | –
15 | > 30 µM (inactive) | > 30 µM (inactive) | > 30 µM (inactive) | > 30 µM (inactive) | – | COc1cc(OC)c(/C=C/S(=O)(=O)Cc2ccc(OC)c(NCC(=O)O)c2)c(OC)c1 [RIGOSERTIB] | –
16 | > 30 µM (inactive) | 0.556 µM (active) | > 30 µM (inactive) | > 30 µM (inactive) | – | CNC(=O)CN1CCC(Oc2cc3c(Nc4cccc(Cl)c4F)ncnc3cc2OC)CC1 [SAPITINIB] | –
17 | > 30 µM (inactive) | > 30 µM (inactive) | > 30 µM (inactive) | > 30 µM (inactive) | – | CN1CCC(CNc2ccc3ncc(-c4cccc(OC(F)(F)F)c4)n3n2)CC1 [SGI-1776] | –
18 | > 30 µM (inactive) | > 30 µM (inactive) | > 30 µM (inactive) | > 30 µM (inactive) | – | C[C@@H]1CN(Cc2ccc(F)cc2)[C@@H](C)CN1C(=O)c1cc2c(C(=O)C(=O)N(C)C)cn(C)c2cc1Cl [TALMAPIMOD] | –
19 | > 30 µM (inactive) | > 30 µM (inactive) | > 30 µM (inactive) | > 30 µM (inactive) | – | O=c1sn(-c2cccc3ccccc23)c(=O)n1Cc1ccccc1 [TIDEGLUSIB] | –
20 | > 30 µM (inactive) | > 30 µM (inactive) | > 30 µM (inactive) | > 30 µM (inactive) | – | CC(=O)Nc1cccc(-n2c(=O)n(C3CC3)c(=O)c3c(Nc4ccc(I)cc4F)n(C)c(=O)c(C)c32)c1 [TRAMETINIB] | –

Row | Compound | Kd [1] | Kd [2] | Kd [3] | Kd [4] | pKd [3] | pKd [2]
21 | COC(=O)[C@@]1(O)C[C@H]2O[C@]1(C)n1c3ccccc3c3c4c(c5c6ccccc6n2c5c31)C(=O)NC4 [K-252A] | > 30 µM (inactive) | > 30 µM (inactive) | > 30 µM (inactive) | > 30 µM (inactive) | – | –
22 | Cc1ccc(-n2nc(C(C)(C)C)cc2NC(=O)NCc2cc(F)ccc2Oc2ccc3c(cnn3CCO)c2)cc1 [PEXMETINIB] | > 30 µM (inactive) | – | > 30 µM (inactive) | > 30 µM (inactive) | – | 5.28
23 | C=CC(=O)N1CCC(Oc2cc3c(Nc4ccc(Cl)c(Cl)c4F)ncnc3cc2OC)CC1 [POZIOTINIB] | > 30 µM (inactive) | 0.34 µM (active) | > 30 µM (inactive) | > 30 µM (inactive) | – | –
24 | CN1CCC(COc2cnc(-c3cccc(Cn4nc(-c5cccc(C#N)c5)ccc4=O)c3)nc2)CC1 [TEPOTINIB] | > 30 µM (inactive) | > 30 µM (inactive) | > 30 µM (inactive) | > 30 µM (inactive) | – | –
